Measured values reported in article PMC8041284, “Tunable Methacrylamides for Covalent Ligand Directed Release Chemistry” (Journal of the American Chemical Society, 2021).
Like-named read-outs stand apart in the source and are kept apart here.

Target: BTK (Homo sapiens, UniProt Q06187)
Assay: biochemical
[1] = read-out: BTK inhibition (%), 0.75 uM BTK, […] probe 3l, 15 min preincubation

BTK, sequence (Q06187 402-655 limits assumed): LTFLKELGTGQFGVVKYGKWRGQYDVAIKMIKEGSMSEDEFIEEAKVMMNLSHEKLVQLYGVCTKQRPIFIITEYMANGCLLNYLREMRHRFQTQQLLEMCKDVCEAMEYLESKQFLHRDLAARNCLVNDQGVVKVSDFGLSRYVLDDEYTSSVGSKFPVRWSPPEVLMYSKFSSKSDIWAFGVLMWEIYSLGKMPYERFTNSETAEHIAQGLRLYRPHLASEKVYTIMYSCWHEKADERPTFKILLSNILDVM

Row | Structure (SMILES) | inhibition at 10 µM [1] | inhibition at 10 µM (read-out: BTK inhibition (%))
1 | CCC[C@H](NC(=O)/C(C#N)=C/c1cccc(Br)n1)c1ccccc1 [PCM-0095282] | 24.8% | –
2 | CC(C)OC(=O)CCC/C=C\C[C@@H]1[C@@H](/C=C/[C@@H](O)COc2cccc(C(F)(F)F)c2)[C@H](O)C[C@@H]1O [PCM-0215893] | -28% | –
3 | CCCN(CCC)C(=O)C1=Cc2ccc(-c3ccc(C(=O)N4CCCC4)cc3)cc2N=C(N)C1 [PCM-0215564] | -10.3% | –
4 | N#C/C(=C\c1ccc(-c2cc(Cl)ccc2Cl)o1)C(=O)Nc1cccc2ncccc12 [PCM-0215369] | 22.4% | –
5 | COc1cc(C(=O)NS(=O)(=O)c2ccccc2C)ccc1Cc1cn(C)c2ccc(NC(=O)OC3CCCC3)cc12 [PCM-0086066] | 47.6% | –
6 | C[C@@H]1O[C@@H](O[C@H]2[C@H](Oc3cc(O)c4c(c3)O[C@H](c3ccc(O)cc3)CC4=O)O[C@H](CO)[C@@H](O)[C@@H]2O)[C@H](O)[C@H](O)[C@H]1O [PCM-0088327] | -7% | –
7 | CCC1(c2cccc(O)c2)CCCCN(C)C1 (centres unmarked) [PCM-0086257] | – | 7.8%
8 | Nc1nc(F)nc2c1ncn2[C@@H]1O[C@H](COP(=O)(O)O)[C@@H](O)[C@@H]1O [PCM-0090501] | -8.6% | –
9 | O=C1Nc2ccc(I)cc2/C1=C/c1cc(Br)c(O)c(Br)c1 [PCM-0095540] | 52.4% | –
10 | CC(C)n1c(=O)n(C)c2cnc3cc(F)c(-c4ccc(OCCCN5CCCCC5)nc4)cc3c21 [PCM-0216091] | -13.9% | –
11 | O=C(O)CC(O)C(=O)O (centres unmarked) [PCM-0216336] | -11.6% | –
12 | C/C=C(\C)C(=O)O[C@H]1[C@H](OC(C)=O)[C@@]2(CO)C(CC1(C)C)C1=CCC3[C@@]4(C)CCC(O[C@@H]5O[C@H](C(=O)O)[C@@H](O[C@@H]6O[C@H](CO)[C@@H](O)[C@H](O)[C@H]6O)[C@H](O)[C@H]5O[C@@H]5O[C@H](CO)[C@@H](O)[C@H](O)[C@H]5O)[C@](C)(CO)C4CC[C@@]3(C)[C@]1(C)C[C@H]2O (some centres unmarked) [PCM-0214843] | 3.4% | –
13 | O=C(/C=C/c1ccccc1)OCc1ccccc1 [PCM-0215962] | 6.9% | –
14 | CNS(=O)(=O)CCc1ccc2[nH]cc(C3CCN(C)CC3)c2c1 [PCM-0065268] | -14.8% | –
15 | COc1cc2c(cc1OC)C1Cc3ccc(OC)c(OC)c3CN1CC2 (centres unmarked) [PCM-0088127] | -14% | –
16 | CCN(CC)C(=S)SSC(=S)N(CC)CC [PCM-0064895] | -5.5% | –
17 | COc1c2c(cc3oc(CO[C@@H]4O[C@H](CO)[C@@H](O)[C@H](O)[C@H]4O)cc(=O)c13)O[C@H](C(C)(C)O)C2 [PCM-0216346] | 7.7% | –
18 | C[C@]12CCC(=O)C=C1CC[C@@H]1[C@@H]2[C@@H](O)C[C@@]2(C)[C@H]1CC[C@]2(O)C(=O)CO [PCM-0214647] | 12.4% | –
19 | COc1ccc(-c2oc3c(CC=C(C)C)c(O[C@@H]4O[C@H](CO)[C@@H](O)[C@H](O)[C@H]4O)cc(O)c3c(=O)c2O[C@@H]2O[C@@H](C)[C@H](O)[C@@H](O)[C@H]2O[C@@H]2OC[C@@H](O)[C@H](O)[C@H]2O)cc1 [PCM-0216511] | -8.5% | –
20 | CN1CCCC(n2nc(Cc3ccc(Cl)cc3)c3ccccc3c2=O)CC1 (centres unmarked) [PCM-0086017] | 5.5% | –
21 | NCCOCCOCCNC(=O)Cc1ccc(Nc2nc(NCc3ccc(F)cc3)nc(NCC3CCCCC3)n2)cc1 [PCM-0215568] | -36.3% | –
22 | O=S(=O)(O)CCSSCCS(=O)(=O)O [PCM-0090667] | -8.6% | –
23 | N#CSc1cc(SC#N)c(N)nc1N [PCM-0095820] | 112% | –

Row | Structure (SMILES) | inhibition at 10 µM [1] | inhibition at 10 µM (read-out: BTK inhibition (%))
24 | CC(C)=CCC[C@](C)(O[C@@H]1O[C@H](CO)[C@@H](O)[C@H](O)[C@H]1O)[C@H]1CC[C@]2(C)[C@@H]1[C@H](O)C[C@@H]1[C@@]3(C)CC[C@H](O)C(C)(C)[C@@H]3[C@@H](O[C@@H]3O[C@H](CO)[C@@H](O)[C@H](O)[C@H]3O[C@@H]3O[C@@H](C)[C@H](O)[C@@H](O)[C@H]3O)C[C@]12C [PCM-0214989] | -8.6% | –
25 | O=C(c1ccc(Cl)cc1)N(Cc1ccccc1)C1CCCCC1 [PCM-0215646] | 20.1% | –
26 | C/C=C(/C)C(=O)O[C@H]1[C@@H](OC(=O)CC(C)C)c2c(ccc3ccc(=O)oc23)OC1(C)C [PCM-0216428] | 7.7% | –
27 | COC(=O)[C@@H]1CC2=CC(=O)CC[C@]2(C)[C@@]23O[C@@H]2C[C@@]2(C)[C@@H](CC[C@@]24CCC(=O)O4)[C@H]13 [PCM-0215188] | -18.7% | –
28 | Nc1nc2c(ncn2[C@@H]2O[C@H](CO)[C@@H](O)[C@H]2O)c(=O)[nH]1 [PCM-0094848] | 0% | –
29 | CCCCCCCCCCCCCC(=S)NCCCC[C@H](NC(=O)OCc1ccccc1)C(=O)Nc1ccccc1 [PCM-0215787] | -6.2% | –
30 | COc1cccc(-c2ccc(NC(=O)C3=C(C(=O)O)CCC3)c(F)c2)c1 [PCM-0215523] | -75.9% | –
31 | Cc1[nH]c(/C=C2\C(=O)Nc3ccc(S(=O)(=O)N(C)c4cccc(Cl)c4)cc32)c(C)c1C(=O)N1CCN(C)CC1 [PCM-0095046] | 6.9% | –
32 | C=C1C(=O)O[C@@H]2/C=C(\C)CC/C=C(\C)CC[C@@H]12 [PCM-0214614] | 46.7% | –
33 | CC(C)(O)CC(=O)NCCn1ccc2ncnc(Nc3ccc(Oc4cccc(C(F)(F)F)c4)c(Cl)c3)c21 [PCM-0095364] | 73.8% | –
34 | NNc1nnc(NN)c2ccccc12 [PCM-0215993] | 9.3% | –
35 | COc1cc([C@@H]2c3cc4c(cc3[C@@H](O[C@@H]3O[C@@H]5CO[C@@H](c6cccs6)O[C@H]5[C@H](O)[C@H]3O)[C@H]3COC(=O)[C@H]23)OCO4)cc(OC)c1O [PCM-0095114] | 24.1% | –
36 | CC1=C(C(=O)O)N2C(=O)[C@@H](NC(=O)[C@H](N)c3ccccc3)[C@H]2SC1 [PCM-0095179] | 4.3% | –
37 | COc1ccc(-c2oc3cc(O)cc(O)c3c(=O)c2O)cc1 [PCM-0215098] | 5.5% | –
38 | C[C@@H]1[C@H]2c3cc4c(cc3O[C@@]35OCOC3=CC(=O)[C@H](C[C@H]1C)[C@@H]25)OCO4 [PCM-0216310] | 33.2% | –
39 | Cc1c(C(C)C)c(=O)n(-c2ccccc2)n1C [PCM-0216024] | -11.7% | –
40 | CC(=O)O[C@@H]1CC[C@@]2(C)[C@@H](CC[C@]3(C)[C@@H]2C(=O)C=C2[C@@H]4[C@@H](C)[C@H](C)CC[C@]4(C)CC[C@]23C)[C@@]1(C)C(=O)O [PCM-0216599] | 88% | –
41 | CC[C@H](C)n1cc(C)c2c(C(=O)NCc3c(C)cc(C)[nH]c3=O)cc(-c3ccc(N4CCNCC4)nc3)cc21 [PCM-0215444] | -2.6% | –
42 | CCCC[C@@H](C=O)NC(=O)[C@H](CC(C)C)NC(=O)OCc1ccccc1 [PCM-0215437] | -4.6% | –
43 | CN[C@H](CC(C)C)C(=O)N[C@H]1C(=O)N[C@@H](CC(N)=O)C(=O)N[C@H]2C(=O)N[C@H]3C(=O)N[C@H](C(=O)N[C@H](C(=O)O)c4cc(O)cc(O)c4-c4cc3ccc4O)[C@H](O)c3ccc(c(Cl)c3)Oc3cc2cc(c3O[C@@H]2O[C@H](CO)[C@@H](O)[C@H](O)[C@H]2O[C@H]2C[C@](C)(N)[C@H](O)[C@H](C)O2)Oc2ccc(cc2Cl)[C@H]1O [PCM-0064980] | 4.3% | –
44 | Cn1cc(-c2cnn3c(N)c(Br)c([C@@H]4CCCNC4)nc23)cn1 [PCM-0095786] | -6.8% | –
45 | CN1CCc2cc(Nc3ncc(C4CC4)c(NCCCNC(=O)C4CCC4)n3)ccc2C1 [PCM-0215643] | -8.5% | –
46 | O=C(O)CC[C@@H](O)C(=O)O [PCM-0215516] | -13.6% | –

Row | Structure (SMILES) | inhibition at 10 µM [1] | inhibition at 10 µM (read-out: BTK inhibition (%))
47 | CCOC(=O)[C@H](CCc1ccccc1)N[C@@H](C)C(=O)N1CCC[C@H]1C(=O)O [PCM-0085929] | 5.4% | –
48 | O=C(Nc1ncc(SCCN2CCCC2)s1)[C@]1(c2ccc(S(=O)(=O)C3CC3)cc2)C[C@H]1C1CCCCC1 [PCM-0095206] | -8.6% | –
49 | O=c1c2ccccc2oc2ccccc12 [PCM-0091091] | -21% | –
50 | O=Cc1ccc(O[C@@H]2O[C@H](CO)[C@@H](O)[C@@H](O)[C@H]2O)cc1 [PCM-0215018] | 7% | –
51 | Nc1ccc(S(N)(=O)=O)cc1 [PCM-0086364] | -9.3% | –
52 | Cn1nc(C(C)(C)C)cc1C(=O)N[C@@H](Cc1cccc(Cl)c1)C(=O)NCC#N [PCM-0095472] | -18.7% | –
53 | Cc1cc(Nc2nc(N[C@@H](C)c3ccc(F)cc3)c(C#N)cc2F)n[nH]1 [PCM-0095250] | 99.3% | –
54 | Cc1ccc(NC(=O)c2ccc(CN3CC[C@H](N(C)C)C3)c(C(F)(F)F)c2)cc1Nc1nccc(-c2cncnc2)n1 [PCM-0214863] | 36.6% | –
55 | O=C(N[C@H](CO)[C@H](O)c1ccc([N+](=O)[O-])cc1)C(Cl)Cl [PCM-0214645] | -8.6% | –
56 | Cc1ccc(S(=O)(=O)Nc2cc(-c3ccc(C#N)s3)ccc2C)cc1 [PCM-0214896] | -6.2% | –
57 | CC(C)COc1ccc(CNC(=O)N(Cc2ccc(F)cc2)C2CCN(C)CC2)cc1 [PCM-0215604] | -3.9% | –
58 | CCCCCCCCOc1ccccc1C(=O)Nc1ccc(C(=O)OCC[N+](C)(CC)CC)cc1 [PCM-0095536] | -64.6% | –
59 | Nc1ncnc2c1ncn2[C@@H]1O[C@H](CO)[C@@H](O)[C@H]1O [PCM-0090045] | 14% | –
60 | CCOc1cc(C=O)ccc1OC(C)=O [PCM-0216281] | 4.6% | –
61 | COc1cccc(-c2cc(NCc3ccc4c(c3)OCO4)nc(N)n2)c1 [PCM-0215610] | -7.7% | –
62 | C=CC(=O)Nc1cccc(Sc2nc(Nc3ccc(N4CCN(C)CC4)cc3)ncc2Cl)c1 [PCM-0095052] | 95.9% | –
63 | COc1ccc([C@@H]2CC(=O)c3c(O)cc(O[C@@H]4O[C@H](CO[C@@H]5O[C@@H](C)[C@H](O)[C@@H](O)[C@H]5O)[C@@H](O)[C@H](O)[C@H]4O)cc3O2)cc1 [PCM-0216487] | -3.1% | –
64 | CC(C)(C)S(=O)(=O)c1ccc2nccc(Nc3n[nH]c4ccc(F)cc34)c2c1 [PCM-0213348] | 26.2% | –
65 | COc1ccccc1N1CCN(CCN2C(=O)CC3(CCCC3)CC2=O)CC1 [PCM-0064586] | -3.1% | –
66 | CCc1cc(Nc2nc(-c3ccc(-n4cnc(C)c4)c(F)c3)cs2)c(C)cc1C [PCM-0215986] | 10% | –
67 | CN1c2ccccc2C(=O)Nc2cnc(Nc3ccc(N4CCC(O)CC4)cc3)nc21 [PCM-0215745] | 93.8% | –
68 | O=C1CC[C@@]2(O)[C@H]3Cc4ccc(O)c5c4[C@@]2(CCN3CC2CC2)[C@H]1O5 [PCM-0085829] | -24.1% | –
